In patent publication US20110288014A1, “METHODS AND COMPOSITIONS FOR DIABETES TREATMENT AND PREVENTION” (TUM Technische Universitat Munchen, priority 2008, published 2011):
Entries after “also recorded” stand apart in the source; their conditions may differ.

Experiments:
[1] = system: mouse adipocytes (cell line 3T3-L1); experiment: 2-deoxyglucose (2-DG) uptake, resorufin assay; format: cell-based
Experimental: Mouse adipocytes (cell line 3T3-L1) as well as mouse myotubes (cell line C2C12) were cultivated under standard conditions and treated either with regular cell culture medium or insulin for 4 hours. Afterwards, cells were exposed to a combination of 2-deoxyglucose (2-DG) and the respective sample, either N-MP, coffee beverage (content of NMP in the coffee beverage: 26.7 mg/L) or a combination of both, for 2 hours. Then, cells were harvested and the 2-DG uptake was analyzed photometrically using the resorufin assay (Yamamoto, N.; Sato, T.; Kawasaki, K.; Murosaki, S.; Yamamoto, Y. A nonradioisotope, enzymatic assay for 2-deoxyglucose uptake in L6 skeletal muscle cells cultured in a 96-well microplate. Analytical Biochemistry 2006, 351, 139-145).

[2] = system: mouse adipocytes (cell line 3T3-L1); experiment: 2-deoxyglucose (2-DG) uptake, resorufin assay; format: cell-based; settings: for 2-DG uptake: first ten minutes after incubation, nearly independent of concentration
[3] = sample alone, no insulin cotreatment, compared to control cells

Row | Compound | 2-deoxyglucose uptake in adipocytes [1, 3] | 2-deoxyglucose uptake in adipocytes ([1]; in combination with insulin) | also measured
1 | Cc1ccc[n+](C)c1 [N-3-Methylpicolinium iodide] | substantial improvement | – | –
2 | Cc1cc[n+](C)cc1 [N-4-Methylpicolinium] | substantial increase | substantial increase | 2-DG uptake ([1]; alone or in combination with insulin, independently from the concentration used (FIGS. 10 and 11)): higher than 100%; 2-DG uptake ([1]; in some cases (FIG. 11, concurrent use of insulin)): > 200%
3 | CCCCCCCCCCCCCCCC[n+]1ccccc1 [N-cetylpyridinium iodide] | excellent effects | excellent effects | 2-DG uptake ([2]; alone (FIG. 16 left panel)): excellent results; 2-DG uptake ([2]; co-treatment with insulin (FIG. 16 right panel)): excellent results
4 | CC[n+]1ccccc1 [N-ethylpyridinium iodide] | good results | – | –
5 | C[n+]1ccccc1.[I-] [N-methylpyridinium iodide] | – | improved | –
6 | N-methylpyridinium [N-MP] | increased; also recorded: best results and effects | significantly enhance the effect of insulin | effectiveness of insulin on 2-deoxyglucose uptake ([1]; FIG. 5, in combination with coffee beverage and insulin): greatly enhance the effectiveness of insulin; 2-deoxyglucose uptake in adipocytes ([1]; sample alone, no insulin cotreatment, compared to control cells, listed as N-Methylpyridinium): enhance the uptake of 2-deoxyglucose in mouse adipocytes similarly insulin; 2-DG uptake by mouse adipocytes ([2]; FIG. 2, in combination with insulin, treatment times 1 min and 10 min, compared with insulin alone): statistically higher extent than insulin alone
